PubChem BioAssay AID248 (DTP/NCI, 2004)
“And” between values parts separate entries of the source, which are not always exact repeats. Equal values may be shown once. Inconclusive results and toxic doses are left out. No stated cut-off is given here; in the data, active means T/C of 150% or more; inactive means T/C below 125%. Peptide text beside a SMILES is read from it. * marks the point of attachment. Boc = CC(C)(C)OC(=O)*

System: L1210 leukemia ip in BDF1 mice, survival T/C
Test: NCI In Vivo Anticancer Drug Screen. Data for tumor model L1210 Leukemia (intraperitoneal) in B6D2F1 (BDF1) mice
Conditions: higher = longer survival
Summary of the method: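 Each compound was tested against a transplantable tumor grown in mice. The endpoint was survival, with treated animals benchmarked against vehicle controls as a simple ratio.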

[1] = endpoint: mean survival time, dose: 100.0 mg/kg/injection, schedule: Q01DX009 (ip), vehicle: Klucel (hydroxypropylcellulose) (HPC)
[2] = endpoint: mean survival time, dose: 100.0 mg/kg/injection, schedule: Q04DX003 (ip), vehicle: Klucel (hydroxypropylcellulose) (HPC)
[3] = endpoint: mean survival time, dose: 200.0 mg/kg/injection, schedule: Q01DX009 (ip), vehicle: Klucel (hydroxypropylcellulose) (HPC)
[4] = endpoint: mean survival time, dose: 200.0 mg/kg/injection, schedule: Q04DX003 (ip), vehicle: Klucel (hydroxypropylcellulose) (HPC)
[5] = endpoint: mean survival time, dose: 400.0 mg/kg/injection, schedule: Q04DX003 (ip), vehicle: Klucel (hydroxypropylcellulose) (HPC)
[6] = endpoint: mean survival time, dose: 25.0 mg/kg/injection, schedule: Q01DX009 (ip), vehicle: Klucel (hydroxypropylcellulose) (HPC)
[7] = endpoint: mean survival time, dose: 50.0 mg/kg/injection, schedule: Q01DX009 (ip), vehicle: Klucel (hydroxypropylcellulose) (HPC)
[8] = endpoint: mean survival time, dose: 100.0 mg/kg/injection, schedule: Q04DX002 (ip), vehicle: Klucel (hydroxypropylcellulose) (HPC)
[9] = endpoint: mean survival time, dose: 200.0 mg/kg/injection, schedule: Q04DX002 (ip), vehicle: Klucel (hydroxypropylcellulose) (HPC)
[10] = endpoint: mean survival time, dose: 400.0 mg/kg/injection, schedule: Q04DX002 (ip), vehicle: Klucel (hydroxypropylcellulose) (HPC)
[11] = endpoint: mean survival time, dose: 100.0 mg/kg/injection, schedule: Q01DX001 (ip), vehicle: Klucel (hydroxypropylcellulose) (HPC)
[12] = endpoint: mean survival time, dose: 200.0 mg/kg/injection, schedule: Q01DX001 (ip), vehicle: Klucel (hydroxypropylcellulose) (HPC)
[13] = endpoint: mean survival time, dose: 100.0 mg/kg/injection, schedule: Q04DX002 (ip), vehicle: saline with Tween-80
[14] = endpoint: mean survival time, dose: 200.0 mg/kg/injection, schedule: Q04DX002 (ip), vehicle: saline with Tween-80
[15] = endpoint: mean survival time, dose: 50.0 mg/kg/injection, schedule: Q04DX003 (ip), vehicle: Klucel (hydroxypropylcellulose) (HPC)
[16] = endpoint: mean survival time, dose: 50.0 mg/kg/injection, schedule: Q04DX002 (ip), vehicle: Klucel (hydroxypropylcellulose) (HPC)
[17] = endpoint: mean survival time, dose: 100.0 mg/kg/injection, schedule: Q01DX001 (ip), vehicle: saline
[18] = endpoint: mean survival time, dose: 200.0 mg/kg/injection, schedule: Q01DX001 (ip), vehicle: saline
[19] = endpoint: mean survival time, dose: 400.0 mg/kg/injection, schedule: Q01DX001 (ip), vehicle: saline
[20] = endpoint: mean survival time, dose: 400.0 mg/kg/injection, schedule: Q01DX009 (ip), vehicle: Klucel (hydroxypropylcellulose) (HPC)

Measured: T/C

CN(C)C(=O)Oc1c(Cl)cccc1Cl
inactive: [1] 92 % of control | [2] 97 % of control | [3] 97 % of control | [4] 96 % of control | [5] 89 % of control

Cc1ccc(NC(=O)COc2cc(Cl)c(Cl)cc2Cl)cc1[N+](=O)[O-]
inactive: [6] 86 % of control | [7] 100 % of control | endpoint: mean survival time, dose: 75.0 mg/kg/injection, schedule: Q01DX009 (ip), vehicle: Klucel (hydroxypropylcellulose) (HPC) 100 % of control and 92 % of control

CC[C@@H]1CN(C)[C@H]2Cc3c([nH]c4ccccc34)C(=O)C[C@H]1C2C(=O)OC (some centres undefined)
inactive: endpoint: mean survival time, dose: 75.0 mg/kg/injection, schedule: Q01DX001 (ip), vehicle: carboxymethylcellulose (CMC) 97 % of control | endpoint: mean survival time, dose: 150.0 mg/kg/injection, schedule: Q01DX001 (ip), vehicle: carboxymethylcellulose (CMC) 95 % of control | endpoint: mean survival time, dose: 300.0 mg/kg/injection, schedule: Q01DX001 (ip), vehicle: carboxymethylcellulose (CMC) 95 % of control

CC(=O)Oc1ccc2c(c1)C=CC1C2CCC2(C)/C(=N/NC(N)=S)CCC12 (centres undefined)
inactive: [8] 100 % of control | [9] 90 % of control | [10] 116 % of control

CCN(CC)CCN(C)C
inactive: endpoint: mean survival time, dose: 100.0 mg/kg/injection, schedule: Q01DX009 (ip), vehicle: saline 102 % of control | endpoint: mean survival time, dose: 100.0 mg/kg/injection, schedule: Q04DX003 (ip), vehicle: saline 105 % of control | endpoint: mean survival time, dose: 200.0 mg/kg/injection, schedule: Q01DX009 (ip), vehicle: saline 107 % of control | endpoint: mean survival time, dose: 200.0 mg/kg/injection, schedule: Q04DX003 (ip), vehicle: saline 97 % of control | endpoint: mean survival time, dose: 400.0 mg/kg/injection, schedule: Q04DX003 (ip), vehicle: saline 97 % of control

O=[N+]([O-])c1ccc2c(c1)OCO2
inactive: [8] 103 % of control | [9] 88 % of control | [10] 94 % of control

COc1cc(/C=N/N(c2ccccc2)C2CCS(=O)(=O)C2)ccc1O (centres undefined)
inactive: endpoint: mean survival time, dose: 100.0 mg/kg/injection, schedule: Q04DX002 (ip), vehicle: saline 93 % of control | endpoint: mean survival time, dose: 200.0 mg/kg/injection, schedule: Q04DX002 (ip), vehicle: saline 101 % of control | endpoint: mean survival time, dose: 400.0 mg/kg/injection, schedule: Q04DX002 (ip), vehicle: saline 93 % of control

O=[N+]([O-])c1ccc(Oc2cccc(C(F)(F)F)c2)c(Cl)c1
inactive: [11] 94 % of control | [12] 97 % of control | endpoint: mean survival time, dose: 400.0 mg/kg/injection, schedule: Q01DX001 (ip), vehicle: Klucel (hydroxypropylcellulose) (HPC) 95 % of control

C=CCN(c1ccccc1)P(=O)(N1CC1)N1CC1
inactive: endpoint: mean survival time, dose: 100.0 mg/kg/injection, schedule: Q01DX001 (ip), vehicle: carboxymethylcellulose (CMC) 96 % of control | endpoint: mean survival time, dose: 200.0 mg/kg/injection, schedule: Q01DX001 (ip), vehicle: carboxymethylcellulose (CMC) 96 % of control | endpoint: mean survival time, dose: 400.0 mg/kg/injection, schedule: Q01DX001 (ip), vehicle: carboxymethylcellulose (CMC) 96 % of control

NS(=O)(=O)c1cc2c(cc1Cl)NCNS2(=O)=O
inactive: endpoint: median survival time, dose: 125.0 mg/kg/injection, schedule: Q12HX016 (oral), vehicle: Klucel (hydroxypropylcellulose) (HPC) 95 % of control | endpoint: median survival time, dose: 125.0 mg/kg/injection, schedule: Q12HX022 (oral), vehicle: Klucel (hydroxypropylcellulose) (HPC) 94 % of control | endpoint: median survival time, dose: 250.0 mg/kg/injection, schedule: Q12HX016 (oral), vehicle: Klucel (hydroxypropylcellulose) (HPC) 93 % of control | endpoint: median survival time, dose: 250.0 mg/kg/injection, schedule: Q12HX022 (oral), vehicle: Klucel (hydroxypropylcellulose) (HPC) 98 % of control | endpoint: median survival time, dose: 500.0 mg/kg/injection, schedule: Q12HX016 (oral), vehicle: Klucel (hydroxypropylcellulose) (HPC) 93 % of control | endpoint: median survival time, dose: 500.0 mg/kg/injection, schedule: Q12HX022 (oral), vehicle: Klucel (hydroxypropylcellulose) (HPC) 98 % of control

O=C1OCC/C1=C\c1cccc(/C=C2\CCOC2=O)c1
inactive: endpoint: mean survival time, dose: 25.0 mg/kg/injection, schedule: Q04DX002 (ip), vehicle: saline with Tween-80 92 % of control | endpoint: mean survival time, dose: 50.0 mg/kg/injection, schedule: Q04DX002 (ip), vehicle: saline with Tween-80 95 % of control | [13] 106 % of control | [14] 100 % of control

Cc1nc(SCc2ccccc2)nc(N)c1CN
inactive: [15] 113 % of control | [11] 93 % of control | [2] 100 % of control | [12] 98 % of control | [4] 104 % of control

NNC(=O)CSSCC(=O)NN
inactive: [8] 101 % of control

OC12c3ccccc3C(O)(c3ccccc31)C1c3ccccc3C2c2ccccc21
inactive: [16] 101 % of control | [8] 93 % of control

c1cnc[c]([Hg][c]2cccnc2)c1
inactive: endpoint: mean survival time, dose: 12.5 mg/kg/injection, schedule: Q01DX009 (ip), vehicle: Klucel (hydroxypropylcellulose) (HPC) 91 % of control | endpoint: mean survival time, dose: 12.5 mg/kg/injection, schedule: Q04DX002 (ip), vehicle: Klucel (hydroxypropylcellulose) (HPC) 98 % of control | [6] 88 % of control | endpoint: mean survival time, dose: 25.0 mg/kg/injection, schedule: Q04DX002 (ip), vehicle: Klucel (hydroxypropylcellulose) (HPC) 98 % of control | [7] 95 % of control | [16] 103 % of control

CCNC(C)(C)C(Cl)c1ccc(Cl)s1 (centres undefined)
inactive: [6] 90 % of control | endpoint: mean survival time, dose: 25.0 mg/kg/injection, schedule: Q04DX003 (ip), vehicle: Klucel (hydroxypropylcellulose) (HPC) 101 % of control | [7] 89 % of control | [15] 97 % of control | [1] 90 % of control | [2] 101 % of control and 102 % of control

COC(=O)C(Cc1ccccc1)NC(=O)C(Cc1ccccc1)NC(=O)OC(C)(C)C (stereo not drawn) (Boc-Phe-Phe-OMe; configuration not given here)
inactive: [8] 94 % of control | [9] 101 % of control | [10] 108 % of control

CN(C)/C(N)=N/S(=O)(=O)c1ccc(C#N)cc1
inactive: [17] 88 % of control | [18] 96 % of control | [19] 94 % of control

Nc1nc(N)nc(-c2ccccc2NN=Nc2ccccc2[N+](=O)[O-])n1
inactive: [1] 103 % of control | [3] 97 % of control | [20] 100 % of control

Cc1cccc(C)c1NC(=O)Oc1ccc(C2CCCCC2)cc1
inactive: [1] 101 % of control | [2] 91 % of control | [3] 97 % of control | [4] 93 % of control | [20] 94 % of control | [5] 88 % of control

CC(=O)Oc1ccc(CC(C(=O)O)c2ccccc2)cc1 (centres undefined)
inactive: [17] 107 % of control | [1] 91 % of control | [2] 100 % of control | [18] 101 % of control | [3] 109 % of control | [4] 96 % of control | [19] 113 % of control | [20] 95 % of control | [5] 96 % of control

COc1ccc(C(=O)Nc2ccc([N+](=O)[O-])cc2O)cc1
inactive: [2] 103 % of control | [4] 104 % of control | [5] 97 % of control

C[N+](C)(C)N1C(=O)C2C3c4ccccc4C(C2C1=O)[n+]1ccccc13 (centres undefined)
inactive: endpoint: mean survival time, dose: 9.38 mg/kg/injection, schedule: Q01DX001 (ip), vehicle: other 86 % of control | endpoint: mean survival time, dose: 18.75 mg/kg/injection, schedule: Q01DX001 (ip), vehicle: other 105 % of control

COc1nc(N)c([N+](=O)[O-])c(OC)n1
inactive: endpoint: mean survival time, dose: 16.0 mg/kg/injection, schedule: Q01DX Z (ip), vehicle: methylcellulose (MC) 97 % of control | endpoint: mean survival time, dose: 31.0 mg/kg/injection, schedule: Q01DX Z (ip), vehicle: methylcellulose (MC) 90 % of control | endpoint: mean survival time, dose: 62.0 mg/kg/injection, schedule: Q01DX Z (ip), vehicle: methylcellulose (MC) 103 % of control

CCCCOP(=O)(Cc1ccc(Cl)cc1Cl)OCCCC
inactive: [13] 109 % of control | [14] 109 % of control | endpoint: mean survival time, dose: 400.0 mg/kg/injection, schedule: Q04DX002 (ip), vehicle: saline with Tween-80 98 % of control

O=c1[nH]c(SCc2ccc([N+](=O)[O-])cc2)nc2ccccc12
inactive: [2] 111 % of control | [4] 102 % of control | [5] 94 % of control
